Measured values taken from ChEMBL document CHEMBL1201862, “PubChem BioAssay data set” (2004).
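All cell lines were grown in 96-well plates and treated with compound for 48 hours. GI50 is the concentration that inhibits growth by half.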 Active and inactive are the calls of the source. Cut-off read from the data, not from the text of the source: active = GI50 up to about 1.1 µM and inactive = higher.

Legend:
Assay in all cases: NCI-60 cell line screen, 48 h
786-0 = system: 786-0
DMS-273 = system: DMS-273
EKVX = system: EKVX
HCT-15 = system: HCT-15
HL-60 = system: HL-60
HOP-62 = system: HOP-62
HT-29 = system: HT-29
KM12 = system: KM12
MOLT-4 = system: MOLT-4
Malme-3M = system: Malme-3M
NCI-H460 = system: NCI-H460
OVCAR-4 = system: OVCAR-4
OVCAR-8 = system: OVCAR-8
SK-MEL-5 = system: SK-MEL-5
SNB-19 = system: SNB-19
SW-620 = system: SW-620
UACC-257 = system: UACC-257

SMILES: CCCCCCC(=O)C/C(CCC(=O)N(Cc1ccccc1)Cc1ccccc1)=N\Nc1ccc([N+](=O)[O-])cc1[N+](=O)[O-]
- GI50 (786-0): 58.5 µM (inactive)
- GI50 (DMS-273): 55.8 µM (inactive)
- GI50 (EKVX): 29.1 µM (inactive)
- GI50 (HCT-15): 42.5 µM
- GI50 (HL-60): 32.2 µM (inactive)
- GI50 (HOP-62): > 100 µM (inactive)
- GI50 (HT-29): 89.9 µM (inactive)
- GI50 (KM12): 46 µM (inactive)
- GI50 (MOLT-4): > 10 µM (inactive)
- GI50 (Malme-3M): > 100 µM (inactive)
- GI50 (NCI-H460): 71.1 µM (inactive)
- GI50 (OVCAR-4): 40.1 µM (inactive)
- GI50 (OVCAR-8): 54.7 µM (inactive)
- GI50 (SK-MEL-5): 55.5 µM (inactive)
- GI50 (SNB-19): > 100 µM (inactive)
- GI50 (SW-620): 55.6 µM (inactive)
- GI50 (UACC-257): 48 µM (inactive)

SMILES: CN/N=C(\C)C(CN1CCCCC1)C(C1=C(O)c2ccccc2OC1)c1ccccc1 (configuration not stated)
- GI50 (786-0): > 100 µM (inactive)
- GI50 (DMS-273): > 100 µM (inactive)
- GI50 (EKVX): > 100 µM (inactive)
- GI50 (HCT-15): > 100 µM
- GI50 (HL-60): 35.2 µM (inactive)
- GI50 (HOP-62): > 100 µM (inactive)
- GI50 (HT-29): > 100 µM (inactive)
- GI50 (KM12): > 100 µM (inactive)
- GI50 (MOLT-4): 39.4 µM (inactive)
- GI50 (Malme-3M): 91.8 µM (inactive)
- GI50 (NCI-H460): > 100 µM (inactive)
- GI50 (OVCAR-4): > 100 µM (inactive)
- GI50 (OVCAR-8): > 100 µM (inactive)
- GI50 (SK-MEL-5): > 100 µM (inactive)
- GI50 (SNB-19): > 100 µM (inactive)
- GI50 (SW-620): > 100 µM (inactive)
- GI50 (UACC-257): > 100 µM (inactive)

SMILES: CCC12C=CCN3CC[C@]4(C(=C(C(=O)OC)[C@@H]1Nc1ccn(C5OC(COC(C)=O)C(OC(C)=O)C5OC(C)=O)c(=O)n1)Nc1ccccc14)C32 (some centres not stated)
- GI50 (786-0): 4.54 µM (inactive)
- GI50 (DMS-273): 4.28 µM (inactive)
- GI50 (EKVX): 5.81 µM (inactive)
- GI50 (HCT-15): 3.54 µM
- GI50 (HL-60): 4.51 µM (inactive)
- GI50 (HOP-62): 4.93 µM (inactive)
- GI50 (HT-29): 4.8 µM (inactive)
- GI50 (KM12): 1.32 µM (inactive)
- GI50 (MOLT-4): 6.58 µM (inactive)
- GI50 (Malme-3M): 4.78 µM (inactive)
- GI50 (NCI-H460): 4.45 µM (inactive)
- GI50 (OVCAR-4): 1.72 µM (inactive)
- GI50 (OVCAR-8): 5.16 µM (inactive)
- GI50 (SK-MEL-5): 4.5 µM (inactive)
- GI50 (SNB-19): 4.73 µM (inactive)
- GI50 (SW-620): 4.66 µM (inactive)
- GI50 (UACC-257): 1.26 µM (inactive)

SMILES: COC(=O)C1=C(C(=O)OC)SC(=CC#CC=C2SC(C(=O)OC)=C(C(=O)OC)S2)S1
- GI50 (786-0): 5.79 µM (inactive)
- GI50 (DMS-273): 10.5 µM (inactive)
- GI50 (EKVX): 52.2 µM (inactive)
- GI50 (HCT-15): 12.6 µM
- GI50 (HL-60): > 100 µM (inactive)
- GI50 (HOP-62): 3.96 µM (inactive)
- GI50 (HT-29): 24.9 µM (inactive)
- GI50 (KM12): > 54.6 µM (inactive)
- GI50 (MOLT-4): > 100 µM (inactive)
- GI50 (Malme-3M): 15.7 µM (inactive)
- GI50 (NCI-H460): 21 µM (inactive)
- GI50 (OVCAR-4): 9.33 µM (inactive)
- GI50 (OVCAR-8): 5.04 µM (inactive)
- GI50 (SK-MEL-5): 27 µM (inactive)
- GI50 (SNB-19): 6.41 µM (inactive)
- GI50 (SW-620): 26.9 µM (inactive)
- GI50 (UACC-257): > 54.3 µM (inactive)

SMILES: N#Cc1c(-c2ccco2)cc(-c2ccccc2)nc1O
- GI50 (786-0): > 100 µM (inactive)
- GI50 (DMS-273): > 100 µM (inactive)
- GI50 (EKVX): > 100 µM (inactive)
- GI50 (HCT-15): > 100 µM
- GI50 (HL-60): > 100 µM (inactive)
- GI50 (HOP-62): > 100 µM (inactive)
- GI50 (HT-29): > 100 µM (inactive)
- GI50 (KM12): > 100 µM (inactive)
- GI50 (MOLT-4): > 100 µM (inactive)
- GI50 (Malme-3M): > 100 µM (inactive)
- GI50 (NCI-H460): > 100 µM (inactive)
- GI50 (OVCAR-4): 63.4 µM (inactive)
- GI50 (OVCAR-8): > 100 µM (inactive)
- GI50 (SK-MEL-5): > 100 µM (inactive)
- GI50 (SNB-19): > 100 µM (inactive)
- GI50 (SW-620): > 100 µM (inactive)
- GI50 (UACC-257): > 100 µM (inactive)

SMILES: CC1CCP(=O)(c2ccccc2)c2ccccc21 (configuration not stated)
- GI50 (786-0): > 100 µM (inactive)
- GI50 (DMS-273): 28.2 µM (inactive)
- GI50 (EKVX): > 100 µM (inactive)
- GI50 (HCT-15): 38.1 µM
- GI50 (HL-60): 19.6 µM (inactive)
- GI50 (HOP-62): 78.7 µM (inactive)
- GI50 (HT-29): > 100 µM (inactive)
- GI50 (KM12): > 100 µM (inactive)
- GI50 (MOLT-4): 30.8 µM (inactive)
- GI50 (Malme-3M): > 100 µM (inactive)
- GI50 (NCI-H460): 40.8 µM (inactive)
- GI50 (OVCAR-4): 38.5 µM (inactive)
- GI50 (OVCAR-8): 41.6 µM (inactive)
- GI50 (SK-MEL-5): 49.5 µM (inactive)
- GI50 (SNB-19): > 100 µM (inactive)
- GI50 (SW-620): > 10 µM (inactive)
- GI50 (UACC-257): 65.9 µM (inactive)
